Results from US20240294551A1 (AMGEN INC., priority 2022, published 2024).

Key:
[1] = system: SW620 cells; test: SW620 CTG Assay (CellTiter-Glo cell viability); type: cell-based, human; details: Homo sapiens, SW-620; SW620, 72 h; third value of the cell; read-out: G12D/C/V Cell Proliferation CTG (72 h) SW620
Method: AsPC-1 and SW620 CTG Assay Protocols
AsPC-1 (human pancreatic adenocarcinoma; ATCC CRL-1682) or SW620 (human colon adenocarcinoma; ATCC CCL-227) cells were cultured in RPMI 1640 medium containing 10% fetal bovine serum and 1× penicillin/streptomycin/L-glutamine. Cells were seeded in 384-well plates at a density of 3.33E+04 cells/mL and incubated at 37° C., 5% CO2, overnight. Serially-diluted compound or DMSO was added to the cells, and plates were incubated at 37° C., 5% CO2 for 72 h. Cell viability was measured using a CellTiter-Glo® Luminescent Cell Viability Assay kit (Promega) according to the manufacturer's protocol. The luminescence signal of treated samples was normalized to DMSO control, and data were analyzed using a 4-parameter logistic model to calculate IC50 values.

[2] = target: His-tagged KRAS G12D protein (Homo sapiens (Human), UniProt P01116, G12D); test: KRAS G12D TR-FRET Assay; type: binding; details: read-out: KRAS G12D Binding IC50
Summary of the method: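 His-tagged KRAS G12D (diluted to 20 nM in pH 7.4 HEPES buffer with 10 mM MgCl2 and 10 μM GDP) was preincubated with titrated compound for 30 min at room temperature. Biotinylated KRPep-2d peptide (diluted to 20 nM) was then added for 1 h, and displacement was monitored by TR-FRET.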

[3] = system: AsPC-1 cells; test: AsPC-1 CTG Assay (CellTiter-Glo cell viability); type: cell-based, human; details: Homo sapiens, ASPC1, 72 h, AsPC-1, 72 h; first value of the cell; read-out: G12D/C/V Cell Proliferation CTG (72 h) AsPC-1
Summary of the method: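 Human pancreatic AsPC-1 or colon SW620 cells in RPMI 1640 with 10% FBS, seeded overnight, then exposed to serially diluted compound for 72 h at 37 °C. CellTiter-Glo luminescence normalized to DMSO control; IC50 from a 4-parameter logistic model.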

[4] = system: Phosphorylation of ERK1/2 in AsPC-1 cells; test: Phospho-ERK1/2 MSD Assay; type: cell-based, human; details: Homo sapiens, ASPC1, 2 h, read-out: 2 h p-ERK (AsPC-1 cells), IC50
Summary of the method: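 Read-out: MSD electrochemiluminescent detection of phosphorylated ERK1/2 in whole-cell lysates, fitted to a 4-parameter logistic curve for IC50. Prior to lysis, AsPC-1 cells (25,000 per well) received a 2 h compound dose-response at 37 °C.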

[5] = target: GDP-bound KRAS protein (aa 1-169), containing both G12D and C118A amino acid substitutions (Homo sapiens (Human), UniProt P01116, C118A/G12D); test: KRAS G12D Coupled Nucleotide Exchange Assay; type: biochemical; details: read-out: KRAS G12D Coupled Exchange IC50
Sequence of GDP-bound KRAS protein (aa 1-169), containing both G12D and C118A amino acid substitutions (P01116 other isoform, or with tags, fused parts or gaps G12D/C118A): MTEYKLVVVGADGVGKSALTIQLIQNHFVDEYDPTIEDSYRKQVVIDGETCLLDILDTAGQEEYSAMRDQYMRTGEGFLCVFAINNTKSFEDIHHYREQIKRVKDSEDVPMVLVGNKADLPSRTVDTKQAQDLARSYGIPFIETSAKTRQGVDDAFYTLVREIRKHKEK

Sequence of His-tagged KRAS G12D protein (P01116 other isoform, or with tags, fused parts or gaps G12D): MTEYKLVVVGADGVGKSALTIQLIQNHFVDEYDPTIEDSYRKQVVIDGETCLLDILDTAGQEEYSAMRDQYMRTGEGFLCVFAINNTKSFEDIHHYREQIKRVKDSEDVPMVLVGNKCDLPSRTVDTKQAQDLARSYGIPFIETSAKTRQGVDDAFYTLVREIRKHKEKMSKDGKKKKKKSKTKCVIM

SMILES | IC50 [1] [µM] | IC50 [2] [µM] | IC50 [3] [µM] | IC50 [4] [µM] | IC50 [5] [µM]
Fc1c2ncc3c(nc(OC[C@@]45CCCN4C[C@H](F)C5)nc13)N1CCOC[C@@H](COCCCCc3c(Cl)cc4[nH]ncc4c3-2)C1 (single isomer, unassigned) [Example 137] | 0.0967 | 0.004 | 0.42 | 0.047 | 0.002
C[C@@]12CCCN(C1)c1nc(OC[C@@]34CCCN3C[C@H](F)C4)nc3c(F)c(ncc13)-c1cccc3ccc(F)c(c13)CC[C@H](F)C(=O)N2 [Example 12, (15R,18S)-18,22,31-trifluoro-8-(((2R,7aS)-2-fluorotetrahydro-1H-pyrrolo[1,2-a]pyrrol-7a(5H)-yl)methoxy)-15-methyl-3,7,9,11,16-pentaazahexacyclo[19.7.1.1˜2,6˜.1˜11,15˜.0˜5,10˜.0˜25,29˜]hentriaconta-1(28),2(31),3,5,7,9,21,23,25(29),26-decaen-17-one] | 0.427 | 0.006 | 0.49 | 0.052 | 0.003
Cc1cc2[nH]ncc2c2c1CCCOC(=O)O[C@@H]1CCCN(C1)c1nc(OC[C@@]34CCCN3C[C@H](F)C4)nc3c(F)c-2ncc13 [Example 38, (17R)-30-Fluoro-24-(((2R,7aS)-2-fluorotetrahydro-1H-pyrrolo[1,2-a]pyrrol-7a(5H)-yl)methoxy)-9-methyl-14,16-dioxa-5,6,21,23,25,29-hexaazahexacyclo[24.3.1.1˜17,21˜.0˜2,10˜.0˜3,7˜.0˜22,27˜]hentriaconta-1(30),2,4,7,9,22,24,26,28-nonaen-15-one bis(2,2,2-trifluoroacetate)] | 0.076 | 0.002 | 0.443 | 0.02 | 0.002
CN1C(=O)CCCCc2c(Cl)cc3[nH]ncc3c2-c2ncc3c(nc(OC[C@@]45CCCN4C[C@H](F)C5)nc3c2F)N2CCC[C@@H]1C2 [Example 53, (17R)-9-chloro-30-fluoro-24-(((2R,7aS)-2-fluorotetrahydro-1H-pyrrolo[1,2-a]pyrrol-7a(5H)-yl)methoxy)-16-methyl-5,6,16,21,23,25,29-heptaazahexacyclo[24.3.1.1~17,21~.0~2,10~.0~3,7~.0~22,27~]hentriaconta-1(30),2,4,7,9,22,24,26,28-nonaen-15-one] | 0.15 | 0.008 | 0.48 | 0.074 | 0.004
O=C1CCCCc2c(Cl)cc3[nH]ncc3c2-c2ncc3c(nc(OC[C@@]45CCCN4C[C@H](F)C5)nc3c2F)N2CC[C@H]3CCN1[C@H]3C2 [Example 62, (28S,32R)-18-chloro-33-fluoro-4-(((2R,7aS)-2-fluorotetrahydro-1H-pyrrolo[1,2-a]pyrrol-7a(5H)-yl)methoxy)-1,3,5,9,14,15,25-heptaazaheptacyclo[23.5.2.1~6,10~.0~2,7~.0~11,19~.0~12,16~.0~28,32~]tritriaconta-2,4,6,8,10(33),11,13,16,18-nonaen-24-one] | 0.01 | 0.003 | 0.07 | 0.004 | 0.002
O=C1OCCCc2c(Cl)cc3[nH]ncc3c2-c2ncc3c(nc(OC[C@@]45CCCN4C[C@H](F)C5)nc3c2F)N2CCCC[C@H](C2)O1 [Example 100, (26R)-18-chloro-32-fluoro-4-(((2R,7aS)-2-fluorotetrahydro-1H-pyrrolo[1,2-a]pyrrol-7a(5H)-yl)methoxy)-23,25-dioxa-1,3,5,9,14,15-hexaazahexacyclo[24.4.1.1~6,10~.0~2,7~.0~11,19~.0~12,16~]dotriaconta-2,4,6,8,10(32),11,13,16,18-nonaen-24-one] | 0.01 | 0.002 | 0.06 | 0.004 | 0.001
O=C1OCCCc2c(F)cc3[nH]ncc3c2-c2ncc3c(nc(OC[C@@]45CCCN4C[C@H](F)C5)nc3c2F)N2CCC[C@H](C2)O1 [Example 112] | 0.137 | 0.005 | 0.36 | 0.048 | 0.003
Fc1c2ncc3c(nc(OC[C@@]45CCCN4C[C@H](F)C5)nc13)N1CCCC(C1)c1cnn(n1)CCCc1c(Cl)cc3[nH]ncc3c1-2 (some centres unmarked) [Example 148] | 0.165 | 0.007 | 0.46 | 0.042 | 0.005

Next, values leading:

IC50 [1] [µM] | IC50 [2] [µM] | IC50 [3] [µM] | IC50 [4] [µM] | IC50 [5] [µM] | SMILES
0.066 | 0.004 | 0.114 | 0.0168 | 0.002 | Cc1cc2[nH]ncc2c2c1CCOC(=O)O[C@H]1C[C@]3(CCCN(C3)c3nc(OC[C@@H]4CCCN4C)nc4c(F)c-2ncc34)C1 (single isomer, unassigned) [Example 326]
0.154 | 0.06 | 0.47 | 0.033 | 0.034 | Fc1c2ncc3c(nc(OC[C@@]45CCCN4C[C@H](F)C5)nc13)N1CCCC(C1)c1cnn(n1)C/C=C/c1c(Cl)cc3[nH]ncc3c1-2 (some centres unmarked) [Example 149]
0.0325 | 0.003 | 0.21 | 0.009 | 0.003 | Cc1cc2[nH]ncc2c2c1[C@H]1C[C@H]1COCC[C@@H]1CCCN(C1)c1nc(OC[C@@]34CCCN3C[C@H](F)C4)nc3c(F)c-2ncc13 [Example 153, (11S,13R,18S)-31-fluoro-25-(((2R,7aS)-2-fluorotetrahydro-1H-pyrrolo[1,2-a]pyrrol-7a(5H)-yl)methoxy)-9-methyl-15-oxa-5,6,22,24,26,30-hexaazaheptacyclo[25.3.1.1~18,22~.0~2,10~.0~3,7~.0~11,13~.0~23,28~]dotriaconta-1(31),2,4,7,9,23,25,27,29-nonaene]
0.302 | 0.006 | 0.72 | 0.052 | 0.005 | Fc1c2ncc3c(nc(OC[C@@]45CCCN4C[C@H](F)C5)nc13)N1CCC[C@H](C1)Cn1ncc(n1)/C=C\c1c(Cl)cc3[nH]ncc3c1-2 [Example 155, (11Z,18R)-9-chloro-31-fluoro-25-(((2R,7aS)-2-fluorotetrahydro-1H-pyrrolo[1,2-a]pyrrol-7a(5H)-yl)methoxy)-5,6,15,16,22,24,26,30,33-nonaazaheptacyclo[25.3.1.1~13,16~.1~18,22~.0~2,10~.0~3,7~.0~23,28~]tritriaconta-1(31),2,4,7,9,11,13(33),14,23,25,27,29-dodecaen]
0.367 | 0.012 | 0.72 | 0.11 | 0.003 | Fc1c2ncc3c(nc(OC[C@@]45CCCN4C[C@H](F)C5)nc13)N1CCC[C@H](C1)Cn1ncc(n1)CCc1c(Cl)cc3[nH]ncc3c1-2 [Example 156, (18R)-9-chloro-31-fluoro-25-(((2R,7aS)-2-fluorotetrahydro-1H-pyrrolo[1,2-a]pyrrol-7a(5H)-yl)methoxy)-5,6,15,16,22,24,26,30,33-nonaazaheptacyclo[25.3.1.1~13,16~.1~18,22~.0~2,10~.0~3,7~.0~23,28~]tritriaconta-1(31),2,4,7,9,13(33),14,23,25,27,29-undecaene]
0.022 | 0.004 | 0.046 | 0.0157 | 0.003 | Fc1c2ncc3c(nc(OC[C@@]45CCCN4C[C@H](F)C5)nc13)N1CCOC[C@H](C1)OC(=S)OCCCc1c(Cl)cc3[nH]ncc3c1-2 [Example 199, (26S)-18-chloro-32-fluoro-4-(((2R,7aS)-2-fluorotetrahydro-1H-pyrrolo[1,2-a]pyrrol-7a(5H)-yl)methoxy)-23,25,28-trioxa-1,3,5,9,14,15-hexaazahexacyclo[24.4.1.1~6,10~.0~2,7~.0~11,19~.0~12,16~]dotriaconta-2,4,6,8,10(32),11,13,16,18-nonaene-24-thione]
0.031 | – | 0.117 | 0.008 | 0.001 | CN(C)CC1(COc2nc3c4cnc(c(F)c4n2)-c2c(c(Cl)cc4[nH]ncc24)CCOC(=O)O[C@H]2C[C@]4(CCCN3C4)C2)CC1 [Example 334, (1S,3R)-10-chloro-24-((1-((dimethylamino)methyl)cyclopropyl)methoxy)-32-fluoro-4,6-dioxa-13,14,19,23,25,27-hexaazaheptacyclo[25.3.1.1~1,3~.1~18,22~.0~9,17~.0~12,16~.0~21,26~]tritriaconta-9,11,14,16,18(32),19,21,23,25-nonaen-5-one]
